According to PubChem BioAssay (NCI):
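Five compound concentrations were applied to cells in 96-well plates for 48 hours; endpoints were derived by simple linear interpolation of the resulting dose-response curve. GI50 marks 50% less growth. TGI denotes the concentration required for complete inhibition of growth.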

Experiments:
Assay in all cases: DTP human tumour cell line panel, 48 h
[1] = test system: NCI-H226 lung
[2] = test system: SK-MEL-2 melanoma
[3] = test system: UO-31 renal
[4] = test system: A549 NSCLC
[5] = test system: HS 578T breast
[6] = test system: MCF7 breast
[7] = test system: OVCAR-4 ovarian
[8] = test system: HCT-15 colon
[9] = test system: SK-OV-3 ovarian
[10] = test system: ACHN renal
[11] = test system: SK-MEL-28 melanoma
[12] = test system: SN12C renal
[13] = test system: HOP-92 NSCLC
[14] = test system: HT29 colon
[15] = test system: CCRF-CEM leukemia
[16] = test system: EKVX NSCLC
[17] = test system: IGROV1 ovarian
[18] = test system: M14 melanoma
[19] = test system: NCI-H23 lung
[20] = test system: SK-MEL-5 melanoma
[21] = test system: HL-60(TB) leukemia
[22] = test system: SF-539 CNS
[23] = test system: SF-268 CNS
[24] = test system: COLO 205 colon
[25] = test system: MALME-3M melanoma
[26] = test system: DU-145 prostate
[27] = test system: NCI/ADR-RES ovarian
[28] = test system: PC-3 prostate
[29] = test system: T-47D breast

SMILES: CN(CC(=O)N(Cc1ccc(C2CCCCC2)cc1)c1ccc(C(=O)O)cc1)S(=O)(=O)c1c(F)c(F)c(F)c(F)c1F
- TGI [1]: 5.51 µM
- GI50 [2]: 2.06 µM
- TGI [2]: 3.68 µM
- GI50 [3]: 1.91 µM
- TGI [3]: 4.73 µM
- GI50 [4]: 6.59 µM
- TGI [4]: 21.6 µM
- GI50 [5]: 2.47 µM
- TGI [5]: 6.04 µM
- GI50 [6]: 1.65 µM
- TGI [6]: 3.48 µM
- GI50 [7]: 1.81 µM
- TGI [7]: 3.48 µM
- GI50 [8]: 1.74 µM
- TGI [8]: 3.36 µM
- GI50 [9]: 1.93 µM
- TGI [9]: 3.8 µM
- GI50 [10]: 1.74 µM
- TGI [10]: 3.15 µM
- GI50 [11]: 1.62 µM
- TGI [11]: 3.03 µM
- GI50 [12]: 2.22 µM
- TGI [12]: 4.88 µM
- GI50 [13]: 2.11 µM
- TGI [13]: 4.02 µM
- GI50 [14]: 2.01 µM
- TGI [14]: 4.11 µM
- GI50 [15]: 2.69 µM
- TGI [15]: 6.81 µM
- GI50 [16]: 1.63 µM
- TGI [16]: 3.58 µM
- GI50 [17]: 2.08 µM
- TGI [17]: 4.46 µM
- GI50 [18]: 1.91 µM
- TGI [18]: 3.59 µM
- GI50 [19]: 1.92 µM
- TGI [19]: 3.81 µM
- GI50 [20]: 1.84 µM
- TGI [20]: 3.58 µM
- GI50 [21]: 2.08 µM
- TGI [21]: 4.48 µM
- GI50 [22]: 1.69 µM
- TGI [22]: 3.26 µM
- GI50 [23]: 1.85 µM
- TGI [23]: 3.59 µM
- GI50 [24]: 1.97 µM
- TGI [24]: 3.95 µM
- GI50 [25]: 1.7 µM
- TGI [25]: 3.64 µM
- GI50 [26]: 1.74 µM
- TGI [26]: 3.11 µM
- GI50 [27]: 2.14 µM
- TGI [27]: 5.26 µM
- GI50 [28]: 2.08 µM
- TGI [28]: 3.96 µM
- GI50 [29]: 2.09 µM
- TGI [29]: 4.83 µM
